Test: xn = mol fraction of the nth substance listed
Conditions: 263.15 K, Fluid (supercritical or subcritical phases), Vibrating tube method, x1 = 0.97

O=C=O [carbon dioxide] + CO
Conditions | mass density [kg/m3]
10575 kPa | 1020.02
10600 kPa | 1020.11
10625 kPa | 1020.19
10650 kPa | 1020.27
10675 kPa | 1020.44
10700 kPa | 1020.52
10725 kPa | 1020.6
10750 kPa | 1020.68
10775 kPa | 1020.76
10800 kPa | 1020.93
10825 kPa | 1021.01
10850 kPa | 1021.09
10875 kPa | 1021.17
10900 kPa | 1021.25
10925 kPa | 1021.42
10950 kPa | 1021.5
10975 kPa | 1021.58
11000 kPa | 1021.66
11025 kPa | 1021.83
11050 kPa | 1021.91
11075 kPa | 1021.99
11100 kPa | 1022.07
11125 kPa | 1022.15
11150 kPa | 1022.29
11175 kPa | 1022.4
11200 kPa | 1022.48
11225 kPa | 1022.56
11250 kPa | 1022.64
11275 kPa | 1022.8
11300 kPa | 1022.89
11325 kPa | 1022.97
11350 kPa | 1023.05
11375 kPa | 1023.13
11400 kPa | 1023.29
11425 kPa | 1023.38
11450 kPa | 1023.46
11475 kPa | 1023.54
11500 kPa | 1023.62
11525 kPa | 1023.75
11550 kPa | 1023.86
11575 kPa | 1023.95
11600 kPa | 1024.03
11625 kPa | 1024.11
11650 kPa | 1024.21
11675 kPa | 1024.35
11700 kPa | 1024.44
11725 kPa | 1024.52
11750 kPa | 1024.6
11775 kPa | 1024.74
11800 kPa | 1024.84
11825 kPa | 1024.93
11850 kPa | 1025.01
11875 kPa | 1025.09
11900 kPa | 1025.19
11925 kPa | 1025.29
11950 kPa | 1025.41
11975 kPa | 1025.5
12000 kPa | 1025.58
12025 kPa | 1025.66
12050 kPa | 1025.75
12075 kPa | 1025.9

From the NIST ThermoML archive (doi:10.1016/j.jct.2016.03.026)
